Laboratory results as given in article PMC7179958 (CPT: Pharmacometrics & Systems Pharmacology, 2020).

How the values were obtained:
[1] = Static R value for clinical TrDDI (FDA guidance); design: species or system human; details: eltrombopag victim, pitavastatin perpetrator; versus FDA cut‐offs
[2] = cited from earlier work
[3] = Fraction unbound in hepatocytes, Rapid Equilibrium Dialysis (RED) device; format: in vitro ADME; details: human, heat inactivated hepatocytes, RED device
Procedure: Fraction Unbound in Hepatocytes. The estimation of the fraction unbound in hepatocytes at equilibrium can be obtained using multiple techniques: heat inactivated hepatocytes (3); linear regression obtained using the logD7.4 (4); parameter estimation (1, 3, 5, 6) or as separate binding rate constants determined experimentally (7). […] The RED device works with low volumes across a medium chamber (500 µL, white) and incubation chamber containing the hepatocytes (300 µL, red), and as such has been reported to even out the non-specific binding (NSB) between the membrane and wells, thereby improving recovery (8). The free fraction in the incubation (fu.inc) is calculated as:
fu.inc= [medium chamber] Whiteincubation chamber(Red) . (Eq.S1)
The amount of non-specific binding (NSB) to the labware is important to understand the recovery from the RED device experiment to evaluate the reliability of fu.inc: […]

[4] = system: UDP‐glucuronosyltransferase (UGT)1A3 and 2B7 and cytochrome P450 (CYP)2C9; details: inhibition by eltrombopag of UGT1A3, 2B7 and CYP2C9 (exception CYP1B1); cited from earlier work
[5] = design: method as in earlier work; details: eltrombopag; minimum value of FDA draft guidance when plasma protein binding ≥ 0.99; cited from earlier work
[6] = cited from earlier work; remark: listed apart in the source
[7] = Semimechanistic PBPK model simulation in simulated healthy volunteers; design: species or system human; details: PBPK model value
Text: Uptake is inhibited by the opposing drug in X 3 via the respective uptake concentration at half of the maximum uptake velocity (K m.up.X) shown as the inhibition constant (K I.up). Passive movement of drug into and out of the liver is through clearances P dif.X and P def.X, respectively. Both drugs are cleared through biliary excretion (CLbi.X) into the gallbladder (X 5), and into X 2 where they can be reabsorbed.
The micro‐rate constants for transporter‐mediated uptake and passive uptake were scaled to macro‐rate constants (see Table 2 ) and then empirically scaled up to the human body (83 kg, healthy adult; ^23 see Table 2 ).
The ODE PBPK model (see Figure 1 for schematic and Supplemental Material for the set of ODEs) was developed using desolve ^27 in R‐studio (v1.1.463, R‐Studio Inc., Boston, MA) running R‐project version 3.6.0 ^28 and was similar to that used for eltrombopag and rosuvastatin. ^5 All figures in this article were generated either within Inkscape (0.93, Inkscape.org, Boston, MA) or cowplot, ggplot2, ^29 , ^30 extrafont, ^31 and Cairo. ^32

[8] = eltrombopag only, single 75 mg, plasma

R value, static model [1]: below the cut‐offs
fraction unbound ([3]; overnight, pitavastatin 0.3, 10 and 100 nmol/ml, eltrombopag 30 nmol/ml, read-out: f u.inc, fraction unbound in the incubation): 0.04
recovery ([3]; read-out: analytical recovery): 10%
CLmet.X, metabolic clearance ([7]; Eqs. 10 and 11): 6.8 mL/min/liver
CLbi.X, biliary clearance ([7]; Eqs. 12 and 13): 13 mL/min/liver
Structure (SMILES): CC1=NN(c2ccc(C)c(C)c2)C(=O)/C1=N\Nc1cccc(-c2cccc(C(=O)O)c2)c1O [eltrombopag, Eltrombopag]
AUC0−∞ (literature) [2, 8]: 145 (101–208) h•µg/mL
tmax (h) [2, 8]: 2.5 (2–4) h
Cmax ([2]; eltrombopag only, single 75 mg, plasma, mean (95% CI)): 10.9 (8.7–13.6) µg/mL
K a, absorption rate constant ([2]; eltrombopag, used for I in.max): 0.0084 min⁻¹
F a F g, fraction absorbed multiplied by the intestinal availability ([2]; eltrombopag): 0.5
parent in urine ([2]; eltrombopag): 0 parent in urine [ ^25 ]
V c.X, volume of the central compartment / volume of distribution ([2]; eltrombopag, plasma): 2940 [ ^5 ] mL
IC50 [4]: 2 to 20 µM
f u.pl, fraction unbound in the plasma set for static R value [5]: 0.01
binding of eltrombopag to plasma proteins [6]: 99.8%
f u.pl.E, eltrombopag fraction unbound in the plasma [6]: 0.002
blood:plasma ratio ([6]; eltrombopag): 0.78
